In US5854010A, “Bioassay for detecting 2,3,7,8-tetrachlorodibenzo-para-dioxin and TCDD-like compounds and novel recombinant cell line useful therefor” (priority 1997, dated 1998):
Read-outs that look alike come from different tables or passages of the source.

Key:
[1] = test system: human hepatoma HepG2 cells; assay: TCDD-inducible luciferase activity, transient transfection with pGudLuc1.1; format: cell-based
Protocol: (§1) In general, the expression vectors pGudLuc1.0 and pGudLuc1.1 were prepared as follows. A 1330-bp HindIII fragment or an 1810-bp HindIII fragment isolated from the plasmid, pMpap1.0 or pMpap1.1, respectively (see, El-Fouly et al., supra), was subcloned into the HindIII site immediately upstream of the luciferase gene in the plasmid pGL2-basic (purchased from Promega).
(§2) More specifically, the following cells were obtained from the source indicated. Wild-type and AhR-defective (BPRc1 and TAO, respectively) mouse hepatoma (Hepa1c1c7) cells (Hepa1), derived from a C57B1 mouse liver tumor, were obtained from J. P. Whitlock, Jr. (Stanford University). These cells were grown as previously described by Miller et al. in "Biochemical and Genetic Analysis of Variant Mouse Hepatoma Cells Defective in the Induction of Benzo(a)pyrene Metabolizing Enzyme Activity", J. Biol. Chem., Vol. 258, pp. 3523-3527 (1983). Additionally, mouse hepatoma (MLE/BV) cells, derived from a spontaneously immortalized C3H/HeN mouse liver cell, were obtained from B. V. Madhukar (Indiana University School of Medicine, Indianapolis, Ind.) and were grown as described for the Hepa1 cells. Rat hepatoma (H4IIe) cells, guinea pig intestinal adenocarcinoma (GPC16) cells, hamster lung (AHL) cells, human hepatoma (HepG2) cells, human breast tumor (MCF7) cells, and human intestinal epithelial (LS180) cells were obtained from the American Type Culture Collection (Rockville, Md.). Until transfection, all of the cells were maintained according to their respective cell-type-specific culture protocols.
(§3) Transfection was accomplished as follows. Using polybrene as previously described by Helferich et al. in "Photooxidized Products of Tryptophan Can Act as Dioxin Agonists", Mol. Pharmacol., Vol. 40, pp. 674-678 (1991), plates of cells (approximately 80% confluent) were transiently transfected with the desired plasmid (15 μg). Then, the transfected cells were allowed to grow for 48 hours, followed by the addition of either DMSO (1 μl/ml) or TCDD (1 nM) solubilized in DMSO, which was followed by incubation for 24 hours. Next, the plates were transferred onto ice, and the media were removed, after which the plates were rinsed twice with cold PBS. Then, 200 μl of luciferase lysis buffer (purchased from Promega) was used to lyse the cells. The lysed cell samples were collected and transferred into a microfuge tube. Cell debris was pelleted by centrifugation, and the supernatants were collected. The supernatant samples were assayed for TCDD-inducible luciferase activity in the following manner.
(§4) Using the stabilized luciferase assay system (purchased from Promega), luciferase activity in an aliquot of the cleared lysed cell supernatant (20 μl) was determined by mixing it with 100 µl of luciferase assay reagent (purchased from Promega) and measuring the resulting luminescence in a Turner Luminometer or Dynatech ML3000 microplate luminometer (light output was integrated over 1 minute after a delay time of 30 seconds).
(§5) Using a microplate adaptation of the method reported by Bradford in "A Rapid Sensitive Method for the Quantitation of Microgram Quantities of Protein Utilizing the Principle of Protein-Dye Binding", Anal. Biochem., […], pp. 248-254 (1976), luciferase activity was standardized to the protein concentration of the supernatant (with bovine serum albumin as the protein standard). Because of instrument differences in luminescence measurement and data output, luciferase activity was determined as relative light units (RLU) per microgram of protein, which was converted to milligram of protein as reported in the Tables below.

rat hepatoma H4IIE cells = assay: as above; format: cell-based
Protocol: as §1, §2, §3, §4, §5

[2] = test system: guinea pig intestinal adenocarcinoma GPC16 cells; assay: as above; format: cell-based
Protocol: as §1, §2, §3, §4, §5

[3] = test system: human breast tumor MCF7 cells; assay: as above; format: cell-based
Protocol: as §1, §2, §3, §4, §5

hamster lung AHL cells = assay: as above; format: cell-based
Protocol: as §1, §2, §3, §4, §5

[4] = test system: mouse hepatoma Hepa1c1c7 cells (wild type); assay: as above; format: cell-based
Protocol: as §1, §2, §3, §4, §5

[5] = test system: human intestinal epithelial LS180 cells; assay: as above; format: cell-based
Protocol: as §1, §2, §3, §4, §5

G16L1.1c8 cells = assay: TCDD-inducible luciferase activity, stably transfected clonal cell line; format: cell-based, guinea pig; settings: 24 h
Protocol: as §4
as §5, with “below. […]” for “below.”
More particularly, isolated clones were grown until confluent, and then incubated in the absence or presence of TCDD (1 nM solubilized in DMSO) for 24 hours. After the incubation, luciferase activity was determined as described above.

[6] = test system: mouse hepatoma Hepa1c1c7 cells (wild type); assay: TCDD-inducible luciferase activity, transient transfection with pGudLuc1.0 (lacks DREs); format: cell-based
Protocol: as §1
More specifically, the following cells were obtained from the source indicated. Wild-type and AhR-defective (BPRc1 and TAO, respectively) mouse hepatoma (Hepa1c1c7) cells (Hepa1), derived from a C57B1 mouse liver tumor, were obtained from J. P. Whitlock, Jr. (Stanford University). These cells were grown as previously described by Miller et al. in "Biochemical and Genetic Analysis of Variant Mouse Hepatoma Cells Defective in the Induction of Benzo(a)pyrene Metabolizing Enzyme Activity", J. Biol. Chem., Vol. 258, pp. 3523-3527 (1983). […]
as §4, §5

MLE-BV cells = assay: TCDD-inducible luciferase activity, transient transfection with pGudLuc1.1; format: cell-based, mouse
Protocol: as §1, §2, §3, §4, §5

[7] = test system: Hepa1-TAO cells (reduced levels of AhR); assay: as above; format: cell-based, mouse
Protocol: as §1, §2, §3, §4, §5

[8] = test system: Hepa1-BPRc1 cells (defective arnt protein); assay: as above; format: cell-based, mouse
Protocol: as §1, §2, §3, §4, §5

[9] = Mus musculus, Luc1.1, TCDD 1 nM vs DMSO

## Clc1cc2c(cc1Cl)Oc1cc(Cl)c(Cl)cc1O2 [TCDD, 2,3,7,8-tetrachlorodibenzo-para-dioxin]
[1]; Homo sapiens, HepG2, Luc1.1, TCDD 1 nM vs DMSO
  fold induction: 66.3
[1]; Luc1.1, TCDD 1 nM, 24 h
  Luciferase activity, TCDD in DMSO: 690 RLU/mg protein
Rat hepatoma H4IIE cells; Luc1.1, TCDD 1 nM, 24 h
  Luciferase activity, TCDD in DMSO: 34.2 RLU/mg protein
Rat hepatoma H4IIE cells; Rattus norvegicus, H4IIE, Luc1.1, TCDD 1 nM vs DMSO
  fold induction: 28.5
[2]; Cavia porcellus, Luc1.1, TCDD 1 nM vs DMSO
  fold induction: 7.6
[2]; Luc1.1, TCDD 1 nM, 24 h
  Luciferase activity, TCDD in DMSO: 28.8 RLU/mg protein
[3]; Homo sapiens, MCF7, Luc1.1, TCDD 1 nM vs DMSO
  fold induction: 33.4
[3]; Luc1.1, TCDD 1 nM, 24 h
  Luciferase activity, TCDD in DMSO: 63.5 RLU/mg protein
Hamster lung AHL cells; Luc1.1, TCDD 1 nM, 24 h
  Luciferase activity, TCDD in DMSO: 174 RLU/mg protein
Hamster lung AHL cells; Mesocricetus auratus, Luc1.1, TCDD 1 nM vs DMSO
  fold induction: 5.8
[4]; Luc1.1, TCDD 1 nM vs DMSO, 0.001 µM
  fold induction: 60 Fold
[4]; Luc1.1, TCDD 1 nM, 24 h, mean of triplicate transfections
  Luciferase activity, TCDD in DMSO: 12.1 RLU/mg protein
[4]; Mus musculus, Hepa-1c1c7, Luc1.1, TCDD 1 nM vs DMSO, read-out: Fold induction
  fold induction: 60.5
[5]; Homo sapiens, LS180, Luc1.1, TCDD 1 nM vs DMSO
  fold induction: 18.6
[5]; Luc1.1, TCDD 1 nM, 24 h
  Luciferase activity, TCDD in DMSO: 26.0 RLU/mg protein
G16L1.1c8 cells; Cavia porcellus, TCDD 1 nM vs DMSO
  fold induction: 25
G16L1.1c8 cells; TCDD 1 nM, mean ± SD of triplicate assays
  Luciferase activity, TCDD in DMSO: 0.76 ± 0.03 RLU/mg protein
[6]; Luc1.0, TCDD 1 nM, 24 h, mean of triplicate transfections
  Luciferase activity, TCDD in DMSO: 0.1 RLU/mg protein
[6]; Mus musculus, Hepa-1c1c7, Luc1.0, TCDD 1 nM vs DMSO
  fold induction at 0.001 µM: 1
[6]; pGudLuc1.0, TCDD 1 nM
  Induction of luciferase activity: failed to induce luciferase activity
MLE-BV cells; Luc1.1, TCDD 1 nM, 24 h
  Luciferase activity, TCDD in DMSO: 13.2 RLU/mg protein
MLE-BV cells; [9]
  fold induction: 66
[7]; Luc1.1, TCDD 1 nM, 24 h
  Luciferase activity, TCDD in DMSO: 1.8 RLU/mg protein
[7]; [9]
  fold induction: 4.5
[7]; pGudLuc1.1, TCDD 1 nM
  Inducibility of luciferase activity: reduced inducibility
[8]; Luc1.1, TCDD 1 nM, 24 h
  Luciferase activity, TCDD in DMSO: 0.8 RLU/mg protein
[8]; [9]
  fold induction: 1.6
[8]; pGudLuc1.1, TCDD 1 nM
  Induction of luciferase activity: failure of TCDD treatment to induce luciferase activity
